Columns and labels:
HCV NS5B = biological target: T1, HCV NS5B (Hepatitis C virus genotype 1b, UniProt Q9WMX2); test: HCV NS5B RdRp enzyme assay; assay type: biochemical; conditions: HCV NS5B RdRp genotype 1b enzyme
T1 construct: The protein was expressed with an 18 amino acid C-terminal truncation to enhance the solubility; made in house; host or cells: E. coli BL21(DE3)
Protocol: HCV NS5B RdRp cloning, expression, and purification. The cDNA encoding the NS5B protein of HCV, genotype 1b, was cloned into the pET21a expression vector. The protein was expressed with an 18 amino acid C-terminal truncation to enhance the solubility. The E. coli competent cell line BL21(DE3) was used for expression of the protein. Cultures were grown at 37° C. for ˜4 hours until the cultures reached an optical density of 2.0 at 600 nm. The cultures were cooled to 20° C. and induced with 1 mM IPTG. Fresh ampicillin was added to a final concentration of 50 μg/ml and the cells were grown overnight at 20° C.
Cell pellets (3 L) were lysed for purification to yield 15-24 mgs of purified NS5B. The lysis buffer consisted of 20 mM Tris-HCl, pH 7.4, 500 mM NaCl, 0.5% triton X-100, 1 mM DTT, 1 mM EDTA, 20% glycerol, 0.5 mg/ml lysozyme, 10 mM MgCl2, 15 ug/ml deoxyribonuclease I, and Complete™ protease inhibitor tablets (Roche). After addition of the lysis buffer, frozen cell pellets were resuspended using a tissue homogenizer. To reduce the viscosity of the sample, aliquots of the lysate were sonicated on ice using a microtip attached to a Branson sonicator. The sonicated lysate was centrifuged at 100,000×g for 1 hr at 4° C. and filtered through a 0.2 μm filter unit (Corning).
The protein was purified using two sequential chromatography steps: Heparin sepharose CL-6B and polyU sepharose 4B (Pharmacia). The chromatography buffers were identical to the lysis buffer but contained no lysozyme, deoxyribonuclease I, MgCl2 or protease inhibitor and the NaCl concentration of the buffer was adjusted according to the requirements for charging the protein onto the column. Each column was eluted with a NaCl gradient which varied in length from 5-50 column volumes depending on the column type. After the final chromatography step, the resulting purity of the enzyme is >90% based on SDS-PAGE analysis. The enzyme was aliquoted and stored at −80° C.
Standard HCV NS5B RdRp enzyme assay. HCV RdRp genotype 1b assays were run in a final volume of 60 μl in 96 well plates (Corning 3600). The assay buffer is composed of 20 mM Hepes, pH 7.5, 2.5 mM KCl, 2.5 mM MgCl2, 1 mM DTT, 1.6 U RNAse inhibitor (Promega N2515), 0.01 mg/ml BSA (Sigma B6917), and 2% glycerol. All compounds were serially diluted (3-fold) in DMSO and diluted further in water such that the final concentration of DMSO in the assay was 2%. HCV RdRp genotype 1b enzyme was used at a final concentration of 28 nM. A polyA template was used at 6 nM, and a biotinylated oligo-dT12 primer was used at 180 nM final concentration. Template was obtained commercially (Amersham 27-4110). Biotinylated primer was prepared by Sigma Genosys. 3H-UTP was used at 0.6 μCi (0.29 μM total UTP). Reactions were initiated by the addition of enzyme, incubated at 30° C. for 60 min, and stopped by adding 25 μl of 50 mM EDTA containing SPA beads (4 μg/μl, Amersham RPNQ 0007). Plates were read on a Packard Top Count NXT after >1 hr incubation at room temperature.
Modified HCV NS5B RdRp enzyme assay. A modified enzyme assay was performed essentially as described for the standard enzyme assay except for the following: The biotinylated oligo dT12 primer was precaptured on streptavidin-coated SPA beads by mixing primer and beads in assay buffer and incubating at room temperature for one hour. Unbound primer was removed after centrifugation. The primer-bound beads were resuspended in 20 mM Hepes buffer, pH 7.5 and used in the assay at final concentrations of 20 nM primer and 0.67 μg/μl beads. Order of addition in the assay: enzyme (1.75 nM) was added to diluted compound followed by the addition of a mixture of template (0.36 nM), 3H-UTP (0.6 μCi, 0.29 μM), and primer-bound beads, to initiate the reaction; concentrations given are final. Reactions were allowed to proceed for 4 hours at 30° C.
IC50 values for compounds were determined using seven different [I]. […]

HCV replicon cells = test: HCV replicon FRET / luciferase assay; assay type: cell-based; conditions: Hepatitis C virus; 50% reduction in FRET or luciferase activity in HCV replicon cells
Protocol: FRET Assay Preparation. The HCV FRET screening assay was performed in 96-well cell culture plates. The FRET peptide (Anaspec, Inc.) (Taliani et al., Anal. Biochem. 1996, 240, 60-67) contains a fluorescence donor, EDANS, near one end of the peptide and an acceptor, DABCYL, near the other end. The fluorescence of the peptide is quenched by […] resonance energy transfer (RET) between the donor and the acceptor, but as the NS3 protease cleaves the peptide the products are released from RET quenching and the fluorescence of the donor becomes apparent. The assay reagent was made as follows: 5× cell Luciferase cell culture lysis reagent from Promega (#E153A) diluted to 1× with dH2O, NaCl added to 150 mM final, the FRET peptide diluted to 20 μM final from a 2 mM stock.
To prepare plates, HCV replicon cells, with or without a Renilla luciferase reporter gene, were trypsinized and plated in a 96-well plate with titrated test compounds added in columns 3 through 12; columns 1 and 2 contained a control compound (HCV control inhibitor), and the bottom row contained cells with DMSO only. The plates were then placed in a CO2 incubator at 37° C.
Assays. Subsequent to addition of the test compounds described above (FRET Assay Preparation), at various times the plate was removed and Alamar blue solution (Trek Diagnostics, #00-100) was added to measure cellular toxicity. After reading in a Cytoflour 4000 instrument (PE Biosystems), plates were rinsed with PBS and then used for FRET assay by the addition of 30 ul of the FRET peptide assay reagent described above (FRET Assay Preparation) per well. The plate was then placed into the Cytoflour 4000 instrument which had been set to 340 excite/490 emission, automatic mode for up to 20 cycles and the plate read in a kinetic mode. Typically, the signal to noise using an endpoint analysis after the reads was at least three-fold. Alternatively, after Alamar blue reading, plates were rinsed with PBS, then used for luciferase assay using the Promega Dual-Glo Luciferase Assay System or the Promega EnduRen Live Cell Substrate assay.
Compound analysis was performed by quantification of the relative HCV replicon inhibition and the relative cytotoxicity values. To calculate cytoxicity values, the average Alamar Blue fluorescence signals from the control wells were set as 100% non-toxic. The individual signals in each of the compound test wells were then divided by the average control signal and multiplied by 100% to determine […]. To calculate the HCV replicon inhibition values, an average background value was obtained from the two wells containing the highest amount of HCV control inhibitor at the end of the assay period. These numbers were similar to those obtained from naïve Huh-7 cells. The background numbers were then subtracted from the average signal obtained from the control wells and this number was used as 100% activity. The individual signals in each of the compound test wells were then divided by the averaged control values after background subtraction and multiplied by 100% to determine percent activity. EC50 values were calculated as the concentration which caused a 50% reduction in FRET or luciferase activity. The two numbers generated for the compound plate, percent cytoxicity and percent activity, were used to determine compounds of interest for further analysis.

T1 sequence (Q9WMX2 2420-2992): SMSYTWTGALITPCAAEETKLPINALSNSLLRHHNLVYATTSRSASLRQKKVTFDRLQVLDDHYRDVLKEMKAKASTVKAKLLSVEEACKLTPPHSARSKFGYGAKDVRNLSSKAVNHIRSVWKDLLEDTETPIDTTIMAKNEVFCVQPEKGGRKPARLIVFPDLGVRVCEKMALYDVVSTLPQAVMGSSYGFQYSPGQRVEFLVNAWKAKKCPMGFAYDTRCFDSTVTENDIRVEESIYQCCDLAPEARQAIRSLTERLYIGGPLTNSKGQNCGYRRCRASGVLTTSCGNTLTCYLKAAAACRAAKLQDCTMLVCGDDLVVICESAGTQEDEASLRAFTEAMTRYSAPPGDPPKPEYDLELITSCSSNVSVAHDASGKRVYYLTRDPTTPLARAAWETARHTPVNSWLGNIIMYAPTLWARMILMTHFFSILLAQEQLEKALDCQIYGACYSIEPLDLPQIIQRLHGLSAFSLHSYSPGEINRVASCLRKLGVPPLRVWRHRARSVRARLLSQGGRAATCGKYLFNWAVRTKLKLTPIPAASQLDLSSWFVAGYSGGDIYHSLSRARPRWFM

SMILES	IC50 (HCV NS5B)	EC50 (HCV replicon cells)
CCC1(S(=O)(=O)NC(=O)c2ccc3c(C4CCCCC4)c4n(c3c2)CC2(C(=O)N3C5CCC3CN(C)C5)CC2c2cc(OC)ccc2-4)CC1 (stereo not shown)	4.2 to 500 nM	4.2 to 500 nM
COc1ccc2c(c1)C1CC1(C(=O)N1C3CCC1CN(C)C3)Cn1c-2c(C2CCCCC2)c2ccc(C(=O)NS(=O)(=O)C3(CC4CC4)CC3)cc21 (stereo not shown)	4.2 to 500 nM	4.2 to 500 nM
COc1ccc2c(c1)C1CC1(C(=O)N1C3CCC1CN(C)C3)Cn1c-2c(C2CCCCC2)c2ccc(C(=O)NS(=O)(=O)Cc3ccccn3)cc21 (stereo not shown)	4.2 to 500 nM	4.2 to 500 nM
COc1ccc2c(c1)C1CC1(C(=O)N1C3CCC1CN(C)C3)Cn1c-2c(C2CCCCC2)c2ccc(C(=O)NS(=O)(=O)Cc3cccc(Cl)c3)cc21 (stereo not shown)	4.2 to 500 nM	4.2 to 500 nM
COc1ccc2c(c1)C1CC1(C(=O)N1C3CCC1CN(C)C3)Cn1c-2c(C2CCCCC2)c2ccc(C(=O)NS(=O)(=O)Cc3cc(Cl)cc(Cl)c3)cc21 (stereo not shown)	4.2 to 500 nM	4.2 to 500 nM
COc1ccc2c(c1)C1CC1(C(=O)N1C3CCC1CN(C)C3)Cn1c-2c(C2CCCCC2)c2ccc(C(=O)NS(=O)(=O)c3sc(C)nc3C)cc21 (stereo not shown)	4.2 to 500 nM	4.2 to 500 nM
COc1ccc2c(c1)C1CC1(C(=O)N1C3CCC1CN(C)C3)Cn1c-2c(C2CCCCC2)c2ccc(C(=O)NS(=O)(=O)c3nc[nH]n3)cc21 (stereo not shown)	4.2 to 500 nM	4.2 to 500 nM
C=CS(=O)(=O)NC(=O)c1ccc2c(C3CCCCC3)c3n(c2c1)CC1(C(=O)N2C4CCC2CN(C)C4)CC1c1cc(OC)ccc1-3 (stereo not shown)	4.2 to 500 nM	4.2 to 500 nM
COc1ccc2c(c1)C1CC1(C(=O)N1C3CCC1CN(C)C3)Cn1c-2c(C2CCCCC2)c2ccc(C(=O)NS(=O)(=O)C=C(C)C)cc21 (stereo not shown)	4.2 to 500 nM	4.2 to 500 nM
COc1ccc2c(c1)C1CC1(C(=O)N1C3CCC1CN(C)C3)Cn1c-2c(C2CCCCC2)c2ccc(C(=O)NS(=O)(=O)c3ncccn3)cc21 (stereo not shown)	4.2 to 500 nM	4.2 to 500 nM
COc1ccc2c(c1)C1CC1(C(=O)N1C3CCC1CN(C)C3)Cn1c-2c(C2CCCCC2)c2ccc(C(=O)NS(=O)(=O)c3nc(C)cc(C)n3)cc21 (stereo not shown)	4.2 to 500 nM	4.2 to 500 nM
